In patent US20050031600A1, “Cardiac function by mesenchymal stem cell transplantation” (Genzyme Corporation, priority 1998, published 2005):

Test system: mesenchymal stem cells (MSCs)
Experiment: Cardiomyogenic differentiation of cultured rat MSCs in vitro (myotube formation, immunofluorescent staining)
Assay type: cell-based
Conditions: for staining for cardiac specific troponin I / staining for myosin heavy chain: cultured MSCs, 21st day
Procedure: An incision was made in the hindlimb of each rat while the rat was under general anesthesia. An 18-gauge needle was punctured to the bone and used to aspirate bone marrow (1 ml) from the tibia. The marrow aspirate was transferred to sterile tubes, which contained 10 ml Iscove's modified Dulbecco medium (TMDM; Gibco Laboratories, Gaithersberg, Md.), containing antibiotics (penicillin G, 100 U/ml; streptomycin, 100 μg/ml) and 1000 IU heparin. The marrow cell suspension was dispersed into single cells using a 23-gauge needle. The tube was spun at 2000 rpm for 5 min to pellet the cells. After removing the supernatant and fat layer, the cell pellet was re-suspended with IMDM. To separate bone marrow cells and red blood cells, the density centrifugation method described by Yablonka-Reuveni and Nameroff (Histochemistry, 87:27-38, 1987) was used. First, the cell suspension was loaded onto 20% and 60% Percoll (Sigma Chemical Co., St. Louis, Mo.) layers, which were piled up in a tube, and the tube was centrifuged at 14000 rpm. for 10 minutes. […] The cells were centrifuged at 2,000 rpm for 10 minutes and then washed with phosphate-buffered saline (PBS) to remove the Percoll. This was repeated and then the cell pellet was resuspended in culture medium and used for in vitro and in vivo studies.
To identify the optimal conditions for inducing mesenchymal stem cell (MSC) differentiation by 5-azacytidine, the cells were cultured in IMDM containing 10% fetal bovine serum and antibiotics, with 5-azacytidine (5-aza: 0.1, 1, 5, 10, 20, and 100 μM; n=6 for each group), with insulin (1 nM; n=6), or with TGFβ1 (10 ng/ml; n=6). The cells were incubated with these agents for 24 hours and then washed with PBS. The medium was changed twice a week for 21 days. Almost all the hematopoietic stem cells were washed away with the medium changes.
To test the effect of cell passaging on cardiomyogenic differentiation of MSCs, samples of MSCs, prepared as described above, were passaged once prior to preparing the cell cultures described below. In this case, the term passaging refers to the distribution of cultured cells growing in a culture dish into new dishes after the cells reach confluence (i.e. when the cells contact each other and cover the surface of the dish).
One group of the MSCs, prepared as above, was, in turn, divided into two groups: A (control) and B, each group having 6 samples. Cells of the control group, A, were cultured for 7 days in IMDM containing 10% fetal bovine serum and antibiotics. The MSCs of group B were initially cultured for 2 days in the above medium after which 5-aza (10 μM) was added to the culture medium. After a 24 hour exposure to 5-aza, the compound was washed out of the culture and the cells were culturing in the medium described above for 4 days more.
Following the above culturing period, the cells from both groups were stained by immunocytofluorescence to detect the presence of cardiac-specific troponin I (a contractile apparatus-specific protein found only in cardiomyocytes) or muscle-specific myosin heavy chain. Briefly, the staining method entailed washing the cells with phosphate-buffer saline (PBS), followed by incubation in methanol at −20° C. for 20 minutes. The dishes were then washed with PBS three times. Monoclonal antibodies specific against cardiac troponin I (Spectral Diagnostic, Toronto) or against myosin heavy chain (Biogenesis, USA), were added to the cells and the dishes were incubated at 37° C. for 1 hour. To remove unbound antibody, the dishes were gently shaken at room temperature and washed three times with PBS. A rabbit antibody conjugated with FITC (fluorescein isothiocyanate) against mouse IgG was added to the dishes, after which incubation and rinsing with PBS were performed as described above for the first antibody. Observations were made and photos were taken. […]

[1] = cultured bone marrow MSCs, 5-aza added on third day, seen on 10th day of culture

number of MSCs in cultures (10 μM 5-aza added on first or second day compared with third day after isolation)	Compound	staining for cardiac specific troponin I	staining for myosin heavy chain	myotube formation [1]	myotube formation (5 μM 5-aza for 24 hours)	number of myotubes, visually determined (10 μM 5-aza compared with 5 μM 5-aza)	myotube formation (10 μM 5-aza for 24 hours)	necrotic cells (MSCs incubated with 5-aza at 20 μM)	necrotic cells (MSCs incubated with 5-aza at 100 μM)	differentiation into cardiomyocyte-like cells (myotube formation) (MSCs passaged once, then 5-aza 10 μM for 24 hours)	cell morphology (concentrations of 5-aza lower than 5 μM)
	TGFβ1	negative	negative	did not form myotubes							
much smaller	Nc1ncn([C@@H]2O[C@H](CO)[C@@H](O)[C@H]2O)c(=O)n1 [5-aza, 5-azacytidine]	stained positively	stained positively	formed multinucleated myotubes	myotube formation was present	greater	myotube formation was present	more than 50%	more than 50%	did not differentiate into cardiomyocyte-like cells	morphologically similar to the control cells
	insulin	negative	negative	did not form myotubes							
